Data taken from US8946203B2, “Benzodioxane inhibitors of leukotriene production” (Boehringer Ingelheim International GmbH, priority 2012, dated 2015).
Where two headings read alike, the source gives them in different places.

Target: T1, human LTA4 hydrolase (Homo sapiens, UniProt P09960)
T1 sequence (P09960 1-611): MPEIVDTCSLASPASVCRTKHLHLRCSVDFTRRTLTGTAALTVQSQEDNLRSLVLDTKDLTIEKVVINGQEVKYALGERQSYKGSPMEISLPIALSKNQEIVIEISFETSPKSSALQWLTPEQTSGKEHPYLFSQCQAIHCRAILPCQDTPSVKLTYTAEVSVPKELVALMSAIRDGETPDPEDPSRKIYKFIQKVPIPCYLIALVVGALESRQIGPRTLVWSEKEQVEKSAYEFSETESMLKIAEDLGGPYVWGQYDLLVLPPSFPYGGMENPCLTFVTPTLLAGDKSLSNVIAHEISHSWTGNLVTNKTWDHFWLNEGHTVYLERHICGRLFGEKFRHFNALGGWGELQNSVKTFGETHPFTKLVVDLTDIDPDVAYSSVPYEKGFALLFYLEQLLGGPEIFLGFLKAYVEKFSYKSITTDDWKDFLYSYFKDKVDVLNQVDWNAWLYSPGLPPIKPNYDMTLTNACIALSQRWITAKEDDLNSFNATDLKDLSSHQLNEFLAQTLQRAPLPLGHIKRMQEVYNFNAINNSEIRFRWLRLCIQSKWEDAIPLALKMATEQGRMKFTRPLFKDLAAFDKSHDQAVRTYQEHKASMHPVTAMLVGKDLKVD
Test: LTA4H Enzyme assay (cleavage of Arg-AMC, fluorescence)
Type: biochemical
Experimental: The compounds of the invention are assessed for the ability to interact with human LTA4 hydrolase in an enzymatic assay that measures the ability of the enzyme to cleave the peptide bond of arginyl-aminomethylcoumarin (Arg-AMC). LTA4H Enzyme (1 nM final), Arg-AMC substrate (50 μM final), and compound are combined in a reaction buffer (50 mM Tris-HCl (pH 7.5), 100 mM KCl, 0.5% bovine serum albumin) at room temperature for 1 h. The formation of product is assessed by measuring the fluorescence of aminomethylcoumarin product (excitation wavelength 380 nm/emission wavelength 460 nm).

[1] = LTA4H Enzyme 1 nM, Arg-AMC substrate 50 μM, room temperature 1 h, fluorescence, read-out: IC50 values of LTA4H Enzyme assay

| SMILES | IC50 [1] | IC50 |
| --- | --- | --- |
| NC1CCN(Cc2ccc([C@H]3COc4ccccc4O3)cc2)CC1 [Example 217, 1-[(S)-4-(2,3-Dihydro-benzo[1,4]dioxin-2-yl)-benzyl]-piperidin-4-ylamine] | 2.28 nM |  |
| OCC1CCN(Cc2ccc([C@H]3COc4cccnc4O3)cc2)CC1 [Example 146, (1-{4-[(3S)-2,3-dihydro[1,4]dioxino[2,3-b]pyridin-3-yl]benzyl}piperidin-4-yl)methanol] | 0.29 nM |  |
| CC(C)(C)NCc1ccc(C2COc3ccccc3O2)cc1 (racemic) [Example 23, N-[4-(2,3-dihydro-1,4-benzodioxin-2-yl)benzyl]-2-methylpropan-2-amine] | 5.2 nM |  |
| COCC(=O)N1CCCC12CCN(Cc1ccc([C@H]3COc4ccccc4O3)cc1)C2 (stereo partly drawn) [Example 128, 1-(7-{4-[(2S)-2,3-dihydro-1,4-benzodioxin-2-yl]benzyl}-1,7-diazaspiro[4.4]non-1-yl)-2-methoxyethanone] | 0.65 nM |  |
| COC1CN(Cc2ccc(C3COc4ccccc4O3)cc2)C1 (racemic) [Example 36, 1-[4-(2,3-dihydro-1,4-benzodioxin-2-yl)benzyl]-3-methoxyazetidine] | 4.45 nM |  |
| CN(C)Cc1ccc([C@H]2COc3ccccc3O2)cc1 [Example 75, 1-{4-[(2S)-2,3-dihydro-1,4-benzodioxin-2-yl]phenyl}-N,N-dimethylmethanamine] | 4.51 nM |  |
| CC1(C(=O)O)CCN(Cc2ccc([C@H]3COc4ccccc4O3)cc2)CC1 [Example 211, 1-[(S)-4-(2,3-Dihydro-benzo[1,4]dioxin-2-yl)-benzyl]-4-methyl-piperidine-4-carboxylic acid] | 0.69 nM |  |
| CN1CCCC2(CCN(Cc3ccc([C@H]4COc5ccccc5O4)cc3)CC2)C1=O [Example 120, 9-{4-[(2S)-2,3-dihydro-1,4-benzodioxin-2-yl]benzyl}-2-methyl-2,9-diazaspiro[5.5]undecan-1-one] | 0.51 nM |  |
| O=C1CCC2(CCN(Cc3ccc([C@H]4COc5ccccc5O4)cc3)C2)N1 (stereo partly drawn) [Example 117, 7-{4-[(2S)-2,3-dihydro-1,4-benzodioxin-2-yl]benzyl}-1,7-diazaspiro[4.4]nonan-2-one] | 0.23 nM |  |
| Fc1ccc2c(c1)OC(c1ccc(CN3CCOCC3)cc1)CO2 (stereo not shown) [Example 202, 4-[4-(7-Fluoro-2,3-dihydro-benzo[1,4]dioxin-2-yl)-benzyl]-morpholine] | 23.4 nM |  |
| c1ccc2c(c1)OC[C@H](c1ccc(CN(CC3CC3)C3CCCCC3)cc1)O2 [Example 95, N-(cyclopropylmethyl)-N-{4-[(2S)-2,3-dihydro-1,4-benzodioxin-2-yl]benzyl}cyclohexanamine] | 0.49 nM |  |
| CNC(=O)C1CCN(Cc2ccc([C@H]3COc4ccccc4O3)cc2)CC1 [Example 179, 1-{4-[(2S)-2,3-dihydro-1,4-benzodioxin-2-yl]benzyl}-N-methylpiperidine-4-carboxamide] | 0.16 nM |  |
| OCC1CCN(Cc2ccc(C3COc4ccccc4O3)cc2)CC1 (racemic) [Example 27, {1-[4-(2,3-dihydro-1,4-benzodioxin-2-yl)benzyl]piperidin-4-yl}methanol] | 1.2 nM |  |
| O=C(O)c1ccc(C2CCN(Cc3ccc([C@H]4COc5ccccc5O4)cc3)CC2)cc1 [Example 233, 4-(1-{4-[(2S)-2,3-dihydro-1,4-benzodioxin-2-yl]benzyl}piperidin-4-yl)benzoic acid] | 0.22 nM |  |
| CN(C)C(=O)CC1CCN(Cc2ccc([C@H]3COc4cccnc4O3)cc2)CC1 [Example 171, 2-(1-{4-[(3S)-2,3-dihydro[1,4]dioxino[2,3-b]pyridin-3-yl]benzyl}piperidin-4-yl)-N,N-dimethylacetamide] | 0.45 nM |  |
| CN(CCc1ccccn1)Cc1ccc(C2COc3ccccc3O2)cc1 (racemic) [Example 42, N-[4-(2,3-dihydro-1,4-benzodioxin-2-yl)benzyl]-N-methyl-2-(pyridin-2-yl)ethanamine] | 0.69 nM |  |
| CC(c1ccc([C@H]2COc3ccccc3O2)cc1)N1CCCC1 (stereo partly drawn) [Example 225, 1-{1-[(S)-4-(2,3-dihydro-benzo[1,4]dioxin-2-yl)-phenyl]-ethyl}-pyrrolidine] | 5.3 nM |  |
| CCN(CC)Cc1ccc(C2COc3ccccc3O2)cc1 (racemic) [Example 45, N-[4-(2,3-dihydro-1,4-benzodioxin-2-yl)benzyl]-N-ethylethanamine] | 0.9 nM |  |
| Cn1cnc(CNCc2ccc(C3COc4ccccc4O3)cc2)c1 (racemic) [Example 55, 1-[4-(2,3-dihydro-1,4-benzodioxin-2-yl)phenyl]-N-[(1-methyl-1H-imidazol-4-yl)methyl]methanamine] | 3.63 nM |  |

| SMILES | IC50 [1] | IC50 |
| --- | --- | --- |
| O[C@H]1CCN(Cc2ccc([C@H]3COc4ccccc4O3)cc2)C1 [Example 91, (3S)-1-{4-[(2S)-2,3-dihydro-1,4-benzodioxin-2-yl]benzyl}pyrrolidin-3-ol] | 0.54 nM |  |
| C[C@H]1CN(Cc2ccc([C@H]3COc4ccccc4O3)cc2)CC[C@H]1C(=O)O [Example 212] | 0.49 nM |  |
| CN(Cc1ccc([C@H]2COc3ccccc3O2)cc1)C1CCN(S(C)(=O)=O)CC1 [Example 13, N-{4-[(2S)-2,3-dihydro-1,4-benzodioxin-2-yl]benzyl}-N-methyl-1-(methylsulfonyl)piperidin-4-amine] | 0.36 nM |  |
| COC1CN(Cc2ccc([C@H]3COc4cccnc4O3)cc2)C1 [Example 166, (3S)-3-{4-[(3-methoxyazetidin-1-yl)methyl]phenyl}-2,3-dihydro[1,4]dioxino[2,3-b]pyridine] | 0.68 nM |  |
| O=S1(=O)CCN(Cc2ccc(C3COc4cccnc4O3)cc2)CC1 (racemic) [Example 17, 3-{4-[(1,1-dioxidothiomorpholin-4-yl)methyl]phenyl}-2,3-dihydro[1,4]dioxin[2,3-b]pyridine] | 0.77 nM |  |
| CC(C)(O)C1CCN(Cc2ccc(C3COc4ccccc4O3)cc2)CC1 (racemic) [Example 28, 2-{1-[4-(2,3-dihydro-1,4-benzodioxin-2-yl)benzyl]piperidin-4-yl}propan-2-ol] | 3.4 nM |  |
| O[C@@H]1CCN(Cc2ccc([C@H]3COc4ccccc4O3)cc2)C1 [Example 88, (3R)-1-{4-[(2S)-2,3-dihydro-1,4-benzodioxin-2-yl]benzyl}pyrrolidin-3-ol] | 0.54 nM |  |
| CN(C)CCN(C)Cc1ccc([C@H]2COc3ccccc3O2)cc1 [Example 79, N-{4-[(2S)-2,3-dihydro-1,4-benzodioxin-2-yl]benzyl}-N,N′,N′-trimethylethane-1,2-diamine] |  | 0.51 nM |
| c1ccc2c(c1)OC[C@@H](c1ccc(CN3CCCC3)cc1)O2 (single isomer, unassigned) [Example 197] | 2.69 nM |  |
| c1ccc2c(c1)OCC(c1ccc(CNC3CCCC3)cc1)O2 (racemic) [Example 41, N-[4-(2,3-dihydro-1,4-benzodioxin-2-yl)benzyl]cyclopentanamine] | 3.71 nM |  |
| O=C(C1CCN(Cc2ccc([C@H]3COc4ccccc4O3)cc2)CC1)N1CCOCC1 [Example 180, (1-{4-[(2S)-2,3-dihydro-1,4-benzodioxin-2-yl]benzyl}piperidin-4-yl)(morpholin-4-yl)methanone] | 0.12 nM |  |
| OCCC1CCN(Cc2ccc([C@H]3COc4ccccc4O3)cc2)CC1 [Example 70, 2-(1-{4-[(2S)-2,3-dihydro-1,4-benzodioxin-2-yl]benzyl}piperidin-4-yl)ethanol] | 0.57 nM |  |
| O=C(O)c1ccc2c(c1)CN(Cc1ccc([C@H]3COc4ccccc4O3)cc1)CC2 [Example 232, 2-{4-[(2S)-2,3-dihydro-1,4-benzodioxin-2-yl]benzyl}-1,2,3,4-tetrahydroisoquinoline-7-carboxylic acid] | 2.75 nM |  |
| c1ccc2c(c1)OC[C@H](c1ccc(CN3CCC[C@H]4CCCC[C@@H]43)cc1)O2 [Example 85, (4aR,8aS)-1-{4-[(2S)-2,3-dihydro-1,4-benzodioxin-2-yl]benzyl}decahydroquinoline] | 0.45 nM |  |
| CC(=O)N1CC[C@H](NCc2ccc([C@H]3COc4ccccc4O3)cc2)C1 [Example 65, 1-[(3S)-3-({4-[(2S)-2,3-dihydro-1,4-benzodioxin-2-yl]benzyl}amino)pyrrolidin-1-yl]ethanone] | 1.15 nM |  |
| c1cnc2c(c1)OC[C@H](c1ccc(CN3CCCOCC3)cc1)O2 [Example 150, (3S)-3-[4-(1,4-oxazepan-4-ylmethyl)phenyl]-2,3-dihydro[1,4]dioxino[2,3-b]pyridine] | 0.21 nM |  |
| CC(=O)N1CCCN(Cc2ccc([C@H]3COc4cccnc4O3)cc2)CC1 [Example 148, 1-(4-{4-[(3S)-2,3-dihydro[1,4]dihydro[2,3-b]pyridin-3-yl]benzyl}-1,4-diazepan-1-yl)ethanone] | 0.28 nM |  |
| CC(=O)N1CCC(NCc2ccc([C@H]3COc4cccnc4O3)cc2)CC1 [Example 153, 1-[4-({4-[(3S)-2,3-dihydro[1,4]dioxino[2,3-b]pyridin-3-yl]benzyl}amino)piperidin-1-yl]ethanone] | 0.82 nM |  |
